# Legend:
# [1] = test system: adherence of activated platelets to neutrophils (PADGEM-mediated); test: Phase-contrast cell adhesion assay: thrombin-activated platelets with neutrophils; assay type: cell-based, human; settings: LNF isomers, FIG. 6
# Description: Platelets were isolated by gel filtration from fresh anticoagulated blood obtained from normal human donors (Hsu-Lin et al., J. Biol. Chem., 259: 9121-9126 (1984)). Activated platelets were prepared by incubating cells without stirring for 20 minutes at 22° C. with thrombin at a final concentration of 0.25 U/ml. Fresh platelets were used in cell adhesion assays within 30 minutes of preparation.
# Neutrophils were prepared by the method of English and Anderson (J. Immunol. Method, 5: 249-252 (1974)). The neutrophil preparations were greater than 95% pure by light microscopy. Monocytes were prepared by washing the mono-nuclear leukocyte fraction twice with human serum-5 mM EDTA and incubating the cells in RPMI 1640--10% fetal calf serum in sterile […] dishes for 2 hours at 37° C. The dishes were washed three times with PBS at 37° C. to remove nonadherent cells. PBS at 0° C. was added, and the cells were incubated at 4° C. for 1 hour. Adherent cells were gently detached with a rubber policeman, washed in PBS, and resuspended in RPMI 1640--1% fetal calf serum. Lymphocytes were obtained by washing the nonadherent cells with PBS and resuspending these cells in RPMI 1640--1% fetal calf serum. The purity of these preparations was established to be greater than 90% by light microscopy using Wright esterase and nonspecific esterase stains.
# Twenty microliters of platelet suspension (2×10^8 /ml) was mixed with 20 μl of cell suspension (2×10^6 /ml) and incubated for 20 minutes at 22° C. in a microfuge tube. An aliquot of the cell suspension was then in a Neubauer chamber and evaluated by light microscropy using an Olympus model BH-2 microscope. Three samples from each assay were evaluated by counting 200 cells and scoring the percentage of cells with two or more adherent platelets (Jungi et al., Blood 67: 629-636 (1986)). Antibody inhibition studies were performed by preincubating cells (20 μl; 3×10^6 /ml) with 20 μl of antibody solution for 20 minutes at 22° C. Subsequently, 20 μl of platelet suspension was added, and the mixture was incubated for 20 minutes at 22° C. Samples were analyzed as above.
# To identify the PADGEM recognition site on leukocytes that mediates the binding of activated platelets, monoclonal antibodies directed at various antigens on the surface of monocytes and neutrophils were tested for their ability to inhibit the interaction of these cells with activated platelets, using the phase-contrast cell adhesion assay described in Example 2 (FIG. 1 and FIG. 2). The antibodies were raised against various leukocytes and myeloid cell lines and are directed at leukocyte antigens. […] The percentage of cells displaying two or more adherent platelets was determined as described in Example 2.
# [2] = test system: glycoprotein IIb-IIIa dependent platelet aggregation; test: ADP-induced platelet aggregation; assay type: cell-based, human; settings: specificity control
# Source text: To address the possibility of a nonspecific effect of LNF III on cell-cell interaction involving platelets, the effect of LNF III on ADP-induced platelet aggregation was examined.
# cell viability = test: Cell viability by trypan blue exclusion; assay type: cell-based; settings: trypan blue exclusion method
# [3] = test system: binding of HL60 cells to COS/PADGEM cells; test: COS cell-PADGEM adhesion assay with labelled HL60 cells; assay type: cell-based, human
# Description: COS cells (1×10^5) were transfected with 40 μg of the resulting PADGEM expression vector by calcium phosphate precipitation. Coverslips (12×12 mm) were added to each culture. After 48 hours of growth in DMEM--10% fetal calf serum, the COS cells were confluent.
# HL60 cells (1×10^7), maintained in culture, were washed and resuspended in 0.5 ml of serum-free RPMI 1640. The cells were labeled with 270 μCi of ^111 In oxine (Callow et al., Arch. Surg., 117: 1447-1455 (1982)) and 10 μg of bis-carboxyethyl-carboxyfluorescein (Kolber et al., J. Immunol. Meth., 108: 255-264 (1988)) by incubation at 37° C. for 30 minutes. After washing with RPMI 1640--1% bovine serum albumin, the cells (1×10^6) were incubated with the coverslips containing confluent COS cell transfectants, in the presence or absence of LNF isomers, for 20 minutes at 37° C. The coverslips were washed with RPMI 1640, and duplicate coverslips were assayed for ^111 In activity. Alternatively, samples were evaluated for HL60 cell adherence by fluorescence and phase-contrast microscopy using a Zeiss Axioscope microscope in a blind assay. Inhibition of the binding of COS/PADGEM cells to U937 cells by the antibody 80H5 was performed in experiments identical to the procedure described above.
# The results of a COS cell-PADGEM adhesion assay, in which the binding of ^111 In and bis-carboxyethyl-carboxyfluorescein-lableled HL60 cells to COS/PADGEM cells was monitored by assaying ^111 In activity (Example 2), are shown in FIG. 7. […] The inhibitory effect of LNF II was more apparent when the LNF to PADGEM ratio was high. […] It is possible that minor contamination of the LNF II preparation with LNF III can account for the inhibitory activity observed.
# The inhibitory effects of LNF I, II, and III on the interaction of HL60 cells and COS/PADGEM was also studied morphologically in a blind assay. In these experiments, the binding of fluorescently labeled HL60 cells to COS/PADGEM cells was scored (Example 2).
# Mel-14 = settings: literature report; cited from earlier work
SMILES,"IC50 ([1]; Homo sapiens, read-out: half-maximal inhibition of the adherence of activated platelets to neutrophils) [µg/mL]",inhibitory activity on adherence of activated platelets to neutrophils ([1]; direct cell adhesion assay),effect on ADP-induced platelet aggregation [2],cell viability (cell viability),"inhibition of binding of radiolabeled HL60 cells to COS/PADGEM cells ([3]; 111In activity, FIG. 7)",inhibition of binding of fluorescently labeled HL60 cells to COS/PADGEM cells ([3]; scored morphologically in a blind assay),inhibition of Mel-14-mediated lymphocyte-endothelial cell interaction (Mel-14)
"CC(=O)N[C@H]1[C@H](O[C@H]2[C@@H](O)[C@@H](CO)O[C@@H](O[C@H]3[C@H](O)[C@@H](O)C(O)O[C@@H]3CO)[C@@H]2O)O[C@H](CO)[C@@H](O[C@@H]2O[C@H](CO)[C@H](O)[C@H](O)[C@H]2O)[C@@H]1O[C@@H]1O[C@@H](C)[C@@H](O)[C@@H](O)[C@@H]1O (stereo partly shown) [LNF III, Galβ1-4(Fucα1-3)GlcNAcβ1-3Galβ1-4Glc]",~50,effective inhibitor,equivalent in the presence or absence of LNF III,did not alter cell viability,significantly inhibited,significant inhibitory activity,–
O=P(O)(O)OC[C@H]1OC(O)[C@@H](O)[C@@H](O)[C@@H]1O (stereo partly shown) [mannose 6-phosphate],–,–,–,–,–,–,inhibit

# From patent publication US5807745A, “Method of inhibiting PADGEM-mediated or ELAM-1-mediated leukocyte adhesion using an inhibitor comprising a Le^x core component” (New England Medical Center Hospitals, Inc., priority 1995, dated 1998)
